Results taken from article PMC8231256, “Influence of N-Methylation and Conformation on Almiramide Anti-Leishmanial Activity” (Molecules, 2021).
Values joined by “and” are separate entries in the source; they are usually repeats but may differ in a detail not shown here. Identical values can stand only once. Like-named read-outs stand apart in the source and are kept apart here. Where a SMILES comes first, the peptide text is derived from it. [ ]: non-standard residue; d: D form. The star is where a group is joined. NMeF = CN[C@@H](Cc1ccccc1)C(=O)O; NMeV = CN[C@H](C(=O)O)C(C)C; Hept6ynoyl = C#CCCCCC(=O)*; NH(CH2)6NH2 = NCCCCCCN*

Legend:
Leishmania donovani = system: Leishmania donovani; parameters: method as in PMID 20441198; conditions: cited from earlier work; for selectivity index (CC50/EC50): Vero kidney cells CC50 vs L. donovani
[1] = system: L. infantum (MHOM/MA/67/ITMAP-263) wild-type strain (WT) promastigotes; assay type: cell-based, Leishmania infantum; conditions: for EC50: 72 h; for Selectivity Index: SI = CC50 (LM-1 macrophage)/EC50 Ldi WT
Experimental: (§1) The biological activity of peptides 15–37 was assessed against the L. infantum wild-type stain (WT), as well as mutants resistant to the common anti-leishmanial agents, such as antimony (Sb^III), amphotericin B (AmB) and miltefosine (MF): Sb2000.1, AmB1000.1 and MF200.5. Activity against Leishmania promastigotes was determined by monitoring the replication of parasites after 72 h of incubation at 25 °C in the presence of increasing concentrations of the different peptides […] and reported as EC50 values (Table 2). […] The greatest potencies were observed using analogs against the amphotericin B resistant strain (e.g., AmB1000.1).
(§2) The L. infantum (MHOM/MA/67/ITMAP-263) wild-type stain (WT), as well as the resistant mutants Sb2000.1, AmB1000.1 and MF200.5 [53, 54, 55, 56, 57, 58], resistant to antimony (Sb^III), amphotericin B (AmB) and miltefosine (MF), respectively, were grown in M199 medium at 25 °C supplemented with 10% fetal bovine serum, 5 μg/mL of haemin at pH 7.0 and 2000 μM Sb (Potassium antimonyl tartrate, Sigma-Aldrich), 200 μM of MF (Miltefosine, Cayman Chem., Ann Arbor, MI, USA) or 1 μM AmB (Amphotericin B solution, Sigma, Oakville, ON, Canada). Antileishmanial values were determined in Leishmania promastigotes by monitoring the replication of parasites after 72 h of incubation at 25 °C in the presence of increasing concentrations of the different peptides by measuring A600 using a Cytation 5 machine (BioTek, Winooski, VT, USA). EC50 values were calculated based on dose–response curves analyzed by non-linear regression with GraphPad Prism 8.4.3 software (GraphPad Software, La Jolla, CA, USA). An average of at least three independent biological replicates from independent cultures was performed for each determination.

[2] = system: L. infantum AmB1000.1 (resistant to amphotericin B) promastigotes; assay type: cell-based, Leishmania infantum; conditions: for EC50: strain resistant to 1 µM amphotericin B, promastigotes, 72 h, 25 °C, 95% CI in brackets (n = 3), read-out: Ldi AmB-Res EC50
Experimental: as §1, §2

[3] = system: L. infantum MF200.5 (resistant to miltefosine) promastigotes; assay type: cell-based, Leishmania infantum; conditions: strain resistant to 200 µM miltefosine; promastigotes, 72 h, 25 °C; 95% CI in brackets (n = 3); read-out: Ldi MF-Res EC50
Experimental: as §1, §2

[4] = system: L. infantum Sb2000.1 (resistant to antimony) promastigotes; assay type: cell-based, Leishmania infantum; conditions: strain resistant to 2 mM antimonials, 72 h, 25 °C, 95% CI in brackets (n = 3), read-out: Ldi Sb-Res EC50
Experimental: as §1, §2

[5] = LM-1 macrophage cytotoxicity (Alamar Blue); assay type: cell-based, murine; conditions: for CC50 at 24 h: mouse
Experimental: The host cytotoxicity was evaluated by monitoring the survival rates of murine LM-1 macrophage at different concentrations of peptides 15–37 ([…]) over 24 h. […] Exceptionally, MeAla peptide amide 21 was 3.2- to 8-fold less toxic than the other peptide analogs.
The LM1- macrophages were grown in DMEM supplemented with 10% heat inactivated FBS. Cells at the concentration of 100,000 cells/mL were cultivated for 24 h in a 96-well plate (37 °C, 5% CO2). The culture medium was removed and fresh medium containing the appropriate drug and concentration was added to the cells, which were incubated for 24 h (37 °C, 5% CO2). Seven different concentrations were tested ([…]) as well as controls (without drugs). After 24 h, the culture medium was removed and replaced for fresh medium containing 10% Alamar Blue (Thermo Fisher Scientific, Waltham, MA, USA) and incubated for 2 h (37 °C, 5% CO2). Readings at 570 and 600 nm (Asys UVM340 Plate reader, Biochrom, Cambridge, UK) were taken and analyzed according to the manufacturer protocol. Survival rates at different drug concentrations and CC50 values were calculated using the Excel software.

[6] = MHOM/MA/67/ITMAP-263) wild-type strain (WT) promastigotes
[7] = promastigotes, 25 °C, 95% confidence interval in brackets (n = 3), read-out: Ldi WT EC50

Compound	activity against Leishmania donovani (Leishmania donovani)	selectivity index (CC50/EC50) (Leishmania donovani)	EC50 [1, 6] [µM]	Selectivity Index [1]	EC50 [2] [µM]	EC50 [3] [µM]	EC50 [4] [µM]	CC50 at 24 h [5] [µM]	CC50 [5] [µM]	EC50 [1, 7] [µM]	CC50 at 24 h ([5]; LM-1 macrophages, 24 h, Alamar Blue, read-out: CC50) [µM]	therapeutic index ([2]; macrophage toxicity compared with potency against the AmB resistant Leishmania strain)
almiramide A [compound 1]	inactive											
Almiramide B [compound 2]	low μM activity	21.8										
Almiramide C [compound 3]	low μM activity	17.4										
C#CCCCCC(=O)N[C@H](C(=O)N(C)[C@H](C(=O)N[C@H](C(=O)N[C@@H](C)C(=O)N[C@@H](Cc1ccccc1)C(=O)NCCCCCCN)C(C)C)C(C)C)C(C)C [compound 19, HCC(CH2)4CO-Val-Val(Me)-Val-Ala-Phe-NH(CH2)6NH2] (Hept6ynoyl-V[NMeV]VAF-{NH(CH2)6NH2})			81.2	3.9	70.3	89.2	78.9	316				
C#CCCCCC(=O)N[C@H](C(=O)N[C@H](C(=O)N[C@H](C(=O)N[C@@H](C)C(=O)N[C@@H](Cc1ccccc1)C(=O)NCCCCCCN)C(C)C)C(C)C)C(C)C [peptide 16, HCC(CH2)4CO-Val-Val-Val-Ala-Phe-NH(CH2)6NH2] (Hept6ynoyl-VVVAF-{NH(CH2)6NH2})			23.4	19.2 and 19.0	20.8	18.1	30.3	446				
C#CCCCCC(=O)N[C@H](C(=O)N[C@H](C(=O)N[C@H](C(=O)N[C@@H](C)C(=O)N(C)[C@@H](Cc1ccccc1)C(=O)NCCCCCCN)C(C)C)C(C)C)C(C)C [peptide 22, HCC(CH2)4CO-Val-Val-Val-Ala-Phe(Me)-NH(CH2)6NH2] (Hept6ynoyl-VVVA[NMeF]-{NH(CH2)6NH2})			29	15.3	25.9	27.8	25	446				
C#CCCCCC(=O)N[C@H](C(=O)N[C@H](C(=O)N[C@H](C(=O)N[C@H]1CCN([C@H](Cc2ccccc2)C(=O)NCCCCCCN)C1=O)C(C)C)C(C)C)C(C)C [R-32, HCC(CH2)4CO-Val-Val-Val-Agl-D-Phe-NH(CH2)6NH2]			92.6	3.6	118	123	111		338			
C#CCCCCC(=O)N[C@H](C(=O)Nn1c(C)cn([C@H](C(=O)N[C@@H](C)C(=O)N[C@@H](Cc2ccccc2)C(=O)O)C(C)C)c1=O)C(C)C [peptide 37, HCC(CH2)4CO-Val-(5-Me)Nai-Val-Ala-Phe-OH]					> 300	> 300	> 300	407		> 300		
C#CCCCCC(=O)Nn1c(C)cn([C@H](C(=O)N[C@H](C(=O)N[C@@H](C)C(=O)N[C@@H](Cc2ccccc2)C(=O)O)C(C)C)C(C)C)c1=O [peptide 36, HCC(CH2)4CO-(5-Me)Nai-Val-Val-Ala-Phe-OH]					> 300	> 300	> 300	436		> 300		
C#CCCCCC(=O)N(C)[C@H](C(=O)N(C)[C@H]1CCN([C@H](C(=O)N(C)[C@@H](C)C(=O)N(C)[C@@H](Cc2ccccc2)C(=O)O)C(C)C)C1=O)C(C)C [peptide 27, HCC(CH2)4CO-Val(Me)-Agl(Me)-Val-Ala(Me)-Phe(Me)-OH]				1.0	> 300	> 300	296			284	295	
C#CCCCCC(=O)N[C@H](C(=O)N[C@H]1CCN([C@H](C(=O)N[C@@H](C)C(=O)N[C@@H](Cc2ccccc2)C(=O)O)C(C)C)C1=O)C(C)C [peptide 24, HCC(CH2)4CO-Val-Agl-Val-Ala-Phe-OH]			248	1.6	261	238	251	398				
C#CCCCCC(=O)N[C@H](C(=O)N[C@H](C(=O)N[C@H]1CCN([C@@H](C)C(=O)N[C@@H](Cc2ccccc2)C(=O)O)C1=O)C(C)C)C(C)C [peptide 25, HCC(CH2)4CO-Val-Val-Agl-Ala-Phe-OH]					> 300	> 300	> 300	416		> 300		
C#CCCCCC(=O)N(C)[C@H](C(=O)N[C@H](C(=O)N[C@H](C(=O)N[C@@H](C)C(=O)N[C@@H](Cc1ccccc1)C(=O)NCCCCCCN)C(C)C)C(C)C)C(C)C [peptide 18, HCC(CH2)4CO-Val(Me)-Val-Val-Ala-Phe-NH(CH2)6NH2] (Hept6ynoyl-[NMeV]VVAF-{NH(CH2)6NH2})			36.7	4.8	5.03	12.1	39.6	177				36
